Experimental data as given in publication PMC6253249, “Protein-Ligand Fishing in planta for Biologically Active Natural Products Using Glutathione Transferases” (Frontiers in Plant Science, 2018).
Blank lines part the entries; values can stand above or below the compound they belong to.

Key:
AtGSTF2 = target: T1, AtGSTF2 (Arabidopsis thaliana, UniProt P46422); assay: Isothermal titration calorimetry (ITC) of ligand binding to Strep-tagged AtGSTF2; settings: for N (binding stoichiometry) / ΔH: 25°C, HBS, 1 mM glutathione, 0.1% w/v Tween 20
T1 construct: Strep-tag (N); made in house; host or cells: Escherichia coli (minimal medium)
T1 sequence (P46422 1-212): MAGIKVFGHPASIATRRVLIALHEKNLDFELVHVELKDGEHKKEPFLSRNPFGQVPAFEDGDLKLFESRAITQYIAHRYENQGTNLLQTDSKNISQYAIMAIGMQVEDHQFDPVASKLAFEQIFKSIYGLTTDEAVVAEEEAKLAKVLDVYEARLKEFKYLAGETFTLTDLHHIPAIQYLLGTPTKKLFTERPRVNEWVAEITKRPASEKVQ
Method: (§1) Isothermal titration calorimetry (ITC) experiments were performed at 25°C in HBS buffer and analyzed using a VP-ITC instrument with Origin 7.0 software (GE Healthcare, Amersham, United Kingdom). Where ligands were added in solvents, an equivalent volume of ethanol was used as control. With the flavonols, 0.1% w/v Tween 20 was used to increase ligand solubility. In addition to titrating ligand into protein, control titrations of ligand into buffer and buffer into protein were performed. For studies with AtGSTF2, the respective Strep-tagged protein was purified from E. coli grown in minimal medium to minimize contamination with pre-bound ligands and used in ITC assuming 1:1 binding to ligand, as previously determined ([Dixon et al., 2011]).
(§2) To investigate the binding characteristics of the ligands to the GSTs, isothermal titration calorimetry (ITC) was used to determine binding affinity and stoichiometry. With AtGSTF2 the commercially available compounds kaempferol and kaempferol-3,7′-dimethylether were used, along with the methylated flavonols purified from the surface of the tobacco leaves (Table 2 and Supplementary Figure S4). […] When AtGSTU19 was tested with ISSG, tight and stoichiometric binding was determined (Table 2 and Supplementary Figure S5). AtGSTU19 enzyme activity, as determined by the GSH conjugation of 1-chloro-2,4-dinitrobenzene, was inhibited by ISSG in a competitive manner with respect to GSH, confirming that ISSG binding occurred at the enzyme active site.
Supplementary Figure S4. Typical ITC data for GSTF2 (7.7 µM) binding to compound 11 (putative kaempferol-3,7’-dimethylether). The experiment was performed in HBS containing 1 mM GSH, 0.1% Tween 20 and 1% ethanol. The associated line indicates best fit curves for a one set of sites binding model.

AtGSTU19 [1] = target: T2, AtGSTU19 (Arabidopsis thaliana, UniProt Q9ZRW8); assay: Isothermal titration calorimetry (ITC) of ligand binding to AtGSTU19; settings: 25°C, HBS, no cofactor listed
T2 construct: Strep-tag (N)
Method: as §1, §2
Supplementary Figure S5. Analysis of GSTU19 ligand binding by ITC.
Binding of ISSG to 11.1 uM GSTU19. A best fit line corresponding to a one set of
sites binding model is shown.

GSTU19 = target: T3, GSTU19 (Arabidopsis thaliana, UniProt Q9ZRW8); assay: Isothermal titration calorimetry at 25 °C in HBS, ligand titrated into GSTU19, no GSH marked for these rows, one-set-of-sites fit.; assay type: binding; settings: read-out: Ka (μM^-1) (converted)
T3 construct: recombinant, Strep-tagged
Method: as §1
as §2, with “stoichiometry.” for “stoichiometry. With AtGSTF2 the commercially available compounds kaempferol and kaempferol-3,7′-dimethylether were used, along with the methylated flavonols purified from the surface of the tobacco leaves (Table 2 and Supplementary Figure S4).”, “site. […]” for “site.”

GSTUs from poppy = tested on: GSTUs from poppy; parameters: method as in Yu and Facchini, 2000; settings: ref Yu and Facchini, 2000; cited from earlier work
AtGSTU19 [2] = target: T2, AtGSTU19; assay: AtGSTU19 enzyme activity, GSH conjugation of 1-chloro-2,4-dinitrobenzene, inhibition; assay type: biochemical; settings: with respect to GSH; substrate 1-chloro-2,4-dinitrobenzene
Method: as §2

T2 sequence (Q9ZRW8 whole entry): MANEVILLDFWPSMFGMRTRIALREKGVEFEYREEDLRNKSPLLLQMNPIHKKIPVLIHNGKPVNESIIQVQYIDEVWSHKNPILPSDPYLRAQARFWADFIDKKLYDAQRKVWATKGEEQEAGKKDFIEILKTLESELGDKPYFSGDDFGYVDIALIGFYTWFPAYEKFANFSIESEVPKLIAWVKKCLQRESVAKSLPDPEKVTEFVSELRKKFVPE
T3 sequence (Q9ZRW8 whole entry): as above

Compound: O=c1c(O)c(-c2ccc(O)cc2)oc2cc(O)cc(O)c12 [kaempferol, reference compound]
Kd (AtGSTF2): 12000 nM
N (binding stoichiometry) (AtGSTF2): 0.60 ± 0.05
ΔH (AtGSTF2): -12.6 ± 1.4 kcal/mol

Compound: COc1cc(O)c2c(=O)c(OC)c(-c3ccc(O)cc3)oc2c1 [Compound 11, kaempferol-3,7′-dimethylether]
Kd (AtGSTF2): 220 nM

Compound: COc1cc(/C=C/C(=O)NCCc2ccc(O)cc2)ccc1O [feruloyltyramine, N-trans-feruloyltyramine]
Inhibition of poppy GSTUs (in words) (GSTUs from poppy): weakly inhibiting

Compound: COc1ccc(-c2oc3cc(OC)cc(O)c3c(=O)c2OC)cc1 [Compound 13, kaempferol-3,7,4′-trimethylether]
Kd (AtGSTF2): < 1000 nM
N (binding stoichiometry) (AtGSTF2): 0.54 ± 0.01
ΔH (AtGSTF2): -18.4 ± 0.2 kcal/mol

Results, then the compound that gave them:

N (binding stoichiometry) (AtGSTU19 [1]): 0.84 ± 0.01
ΔH (AtGSTU19 [1]): -11.8 ± 0.1 kcal/mol
Compound: CCCCCCSC[C@H](NC(=O)CC[C@H](N)C(=O)O)C(=O)NCC(=O)O [S-hexylglutathione, reference compound]

Kd (GSTU19): 0.311 µM
Compound: CCCCCCSC[C@H](NC(=O)CC[C@H](N)C(=O)O)C(=O)NCC(=O)O [S-hexylglutathione]

N (binding stoichiometry) (AtGSTU19 [1]): 0.98 ± 0.01
ΔH (AtGSTU19 [1]): -10.6 ± 0.1 kcal/mol
Mode of inhibition of AtGSTU19 enzyme activity (AtGSTU19 [2]): competitive
Compound: NC(CCC(=O)NC(CSSCc1c[nH]c2ccccc12)C(=O)NCC(=O)O)C(=O)O (stereo not drawn) [ISSG, 3-methylindolyl glutathionyl disulfide]

Kd (GSTU19): 0.117 µM
Compound: N[C@@H](CCC(=O)N[C@@H](CSSCc1c[nH]c2ccccc12)C(=O)NCC(=O)O)C(=O)O [ISSG, 3-methylindolyl glutathionyl disulfide]
